Measured values from patent US9192662B2, “Methods using immunomodulatory compounds for modulating level of CD59” (Celgene Corporation, priority 2008, dated 2015).

What was measured:
CD59 mRNA [1] = assay: CD59 mRNA levels in unstimulated monocytes (Affymetrix gene array); type: cell-based, Human; settings: CD14+ monocytes from healthy volunteers, after treatment with 10 nM or more, FIG. 2
Procedure: Human PBMCs were isolated from buffy coat from three healthy volunteers using ficoll gradient centrifugation. CD14+ monocytes were isolated from each batch of PBMCs using anti-CD14 microbeads (Miltenyi). Cells were treated with 0.1% DMSO or 4-amino-2-(2,6-dioxopiperidin-3-yl)isoindoline-1,3-dione (1 μM) 1 or lenalidomide (10 μM) for 30 minutes. Thereafter the cells were either left unstimulated or stimulated with 100 ng/ml LPS and incubated for 6 hours. After the incubation period the cells were lysed in TRI reagent (Sigma) for RNA isolation. The RNAs isolated using the TRI reagent RNA isolation protocol, were column cleaned (Qiagen) and the RNAs kept separate from the donors, were pooled for cDNA synthesis. Briefly, double-stranded cDNA will be synthesized using 2-5 μg of total RNA. Biotin-labeled cRNA will be synthesized using MessageAmp aRNA kit (Ambion), 15 μg of cRNA fragmented and hybridized to each Affymetrix human UI 33A array. The above procedures will be done twice for each RNA sample to obtain replicate biotin-labeled probes. Data analysis was performed using GeneSpring (Agilent).

CD59 mRNA [2] = assay: CD59 mRNA levels in alpha-CD3/CD28 stimulated T cells (Affymetrix gene array); type: cell-based, Human; settings: CD4+ T cells, anti-CD3/anti-CD28 stimulation; 3, 6, 12 and 24 hours; lenalidomide 10 μM, CC-4047 1 μM; FIG. 3
Procedure: Human PBMCs were isolated from buffy coat from four healthy volunteers using ficoll gradient centrifugation CD4+ T cells were isolated from each batch of PBMCs using anti-CD4 microbeads (Miltenyi). Cells were treated with 0.1% DMSO or 4-amino-2-(2,6-dioxopiperidin-3-yl)isoindoline-1,3-dione (1 μM) 1 or lenalidomide (10 μM) in the presence or absence of anti-CD3/anti-CD28 stimulation over a time course which included 3, 6, 12 and 24 hours of treatment. Cells were harvested at indicated times and RNA isolated as described above. Methods for Affymetrix gene array analysis were as described above.

CD59 mRNA [3] = assay: CD59 mRNA levels in PBMCs (Affymetrix gene array); type: cell-based, Human; settings: PBMCs from healthy volunteers; 24, 48 and 72 hours; lenalidomide 10 μM, CC-4047 1 μM; FIG. 1
Procedure: Human PBMCs were isolated from buffy coat from healthy volunteers using ficoll gradient centrifugation. PBMCs were treated with 4-amino-2-(2,6-dioxopiperidin-3-yl)isoindoline-1,3-dione (1 μM) or lenalidomide (10 μM) or vehicle control (0.1% DMSO) for 24 hours, 48 hours, and 72 hours. Cells were harvested and RNA isolated as above. Methods for Affymetrix gene array analysis were as described above.

CD59 mRNA [4] = assay: CD59 mRNA levels in several in vitro cellular models in Affymetrix gene array experiments; type: cell-based; settings: primary T cells, primary monocytes, NK cells, cultured PBMCs from normal and CLL patients, Namalwa Burkitt's lymphoma cell line
Text: In certain embodiments, the immunomodulatory compounds provided herein, such as 3-(4-amino-1-oxo-1,3-dihydro-isoindol-2-yl-piperidine-2,6-dione (lenalidomide), 4-amino-2-(2,6-dioxopiperidin-3-yl)isoindoline-1,3-dione or N-{[2-(2,6-dioxo(3-piperidyl)-1,3-dioxoisoindolin-4-yl]methyl}cyclopropyl-carboxamide, induce increase in the mRNA levels of CD59 in several in vitro cellular models in Affymetrix gene array experiments (both primary cells and cell lines). In certain aspects, this increase is found in primary T cells, primary monocytes, NK cells, cultured PBMCs from normal and CLL patients, and the Namalwa Burkitt's lymphoma cell line.
Namalwa cells are cultured in RPM1 supplemented with 10% fetal bovine serum. Cells are treated with vehicle control (0.1% DMSO) or 4-amino-2-(2,6-dioxopiperidin-3-yl)isoindoline-1,3-dione (10 μM) or lenalidomide (10 μM) for 8 hours and 24 hours. Cells are harvested and RNA isolated as described above. Methods for Affymetrix gene array analysis are as described above.
PBMCs are isolated from whole blood from CLL patients (MD Anderson) using ficoll gradient centrifugation. Cells are treated with 4-amino-2-(2,6-dioxopiperidin-3-yl)isoindoline-1,3-dione (1 μM), lenalidomide (10 μM) or N-{[2-(2,6-dioxo(3-piperidyl)-1,3-dioxoisoindolin-4-yl]methyl}cyclopropyl-carboxamide (10 μM) for 24 and 48 hours. Samples from five CLL patients are analyzed individually. Cells are harvested and RNA isolated as described above. Methods for Affymetrix gene array analysis are as described above.

Nc1cccc2c1C(=O)N(C1CCC(=O)NC1=O)C2=O (stereo not drawn) [CC-4047, 4-amino-2-(2,6-dioxopiperidin-3-yl)isoindoline-1,3-dione]
increase: CD59 mRNA levels in unstimulated monocytes (CD59 mRNA [1]) | CD59 mRNA levels in α-cd3/cd28 stimulated T cells (CD59 mRNA [2]) | CD59 mRNA levels in PBMC cells (CD59 mRNA [3]) | mRNA levels of CD59 in several in vitro cellular models (CD59 mRNA [4])

O=C1CCC(N2C(=O)c3cccc(CNC(=O)C4CC4)c3C2=O)C(=O)N1 (stereo not drawn) [N-{[2-(2,6-dioxo(3-piperidyl)-1,3-dioxoisoindolin-4-yl]methyl}cyclopropyl-carboxamide]
increase: mRNA levels of CD59 in several in vitro cellular models (CD59 mRNA [4])

Nc1cccc2c1CN(C1CCC(=O)NC1=O)C2=O (stereo not drawn) [lenalidomide, 3-(4-amino-1-oxo-1,3-dihydro-isoindol-2-yl)-piperidine-2,6-dione]
increase: CD59 mRNA levels in unstimulated monocytes (CD59 mRNA [1]) | CD59 mRNA levels in α-cd3/cd28 stimulated T cells (CD59 mRNA [2]) | CD59 mRNA levels in PBMC cells (CD59 mRNA [3]) | mRNA levels of CD59 in several in vitro cellular models (CD59 mRNA [4])
